Laboratory results from patent US20220265590A1, “DIBENZYLAMINES AS AMINO ACID TRANSPORT INHIBITORS” (VANDERBILT UNIVERSITY, priority 2019, published 2022).

Tests used:
HEK293 cells [1] = test: Glutamine uptake inhibition assay (3H-labeled glutamine accumulation in live cells); format: cell-based; details: Homo sapiens, 15 minutes incubation with 3H-GLN (500 nM), assay buffer pH 6, triplicate, read-out: ^3H Glut IC50
Method: Twenty-four hours prior to assay, HEK293 cells were seeded at a density of 12K cells per well into a 96 well plate (coated with poly-D-Lysine). […] Accumulation of 3H-labeled glutamine (3H-GLN) in live cells was assessed by incubation for 15 minutes with vehicle or test reagent at the concentrations indicated. The final concentration of 3H-GLN was 500 nM. Each compound was evaluated in triplicate. For the assay, cells were rinsed with assay buffer (pH 6) three times (100 uL). Compounds were transferred in a single-add protocol and incubated for 15 minutes with 3H-GLN. After the uptake period, the supernatant was removed and cell monolayers were washed 3× with 100 μl assay buffer. Subsequently, cells were lysed with 50 μl 1M NaOH and 150 μl scintillation liquid was added to each well. The plate was incubated at room temperature for 20 minutes, transferred to 4° C. storage overnight, and read the next day using a top-count plate reader (Perkin Elmer).

HEK293 cells [2] = test: Viability (Cell Titer, CellTiter-Glo); format: cell-based; details: Homo sapiens, 48 h incubation, 96-well plate
Method: Viability (Cell Titer) was evaluated using a commercially available chemiluminescent reagents (CellTiter-Glo, Promega Corp. G7572) in 96-well plate format according to the manufacturers protocol. Cells were exposed to either vehicle or test agent at the indicated concentrations and incubated for a period of 48 h. Subsequently, CellTiter-Glo reagent was added and the plates were read using a plate reader (BioTek Synergy 4) with standard settings.

Structure (SMILES) | IC50 (HEK293 cells [1]) | IC50 (HEK293 cells [2])
N[C@@H](CCN(Cc1ccccc1OCc1ccc(Cl)cc1)Cc1ccccc1Oc1ccc(Cl)cc1)C(=O)O [Cpd. No. 11, (S)-2-amino-4-((2-((4-chlorobenzyl)oxy)benzyl)(2-(4-chlorophenoxy)benzyl)amino)butanoic acid] | < 100 µM | 12.7 µM
COc1cccc(COc2ccccc2CN(CC[C@H](N)C(=O)O)Cc2ccccc2Oc2ccc(Cl)cc2)c1 [Cpd. No. 20, (S)-2-amino-4-((2-(4-chlorophenoxy)benzyl)(2-((3-methoxybenzyl)oxy)benzyl)amino) butanoic acid] | 3.19 µM | 13.9 µM
Cc1cccc(COc2ccccc2CN(CC[C@H](N)C(=O)O)Cc2ccccc2Oc2ccc(Cl)cc2)c1 [Cpd. No. 21, (S)-2-amino-4-((2-(4-chlorophenoxy)benzyl)(2-((3-methylbenzyl)oxy)benzyl)amino) butanoic acid] | 25.1 µM | 28.9 µM
N[C@@H](CCN(Cc1ccccc1OCc1ccccc1F)Cc1ccccc1Oc1ccccc1F)C(=O)O [compound 7, (S)-2-amino-4-((2-((2-fluorobenzyl)oxy)benzyl)(2-(2-fluorophenoxy)benzyl)amino)butanoic acid] | 94.2 µM | 18.7 µM
N[C@@H](CCN(Cc1ccccc1OCc1ccc(F)cc1)Cc1ccccc1Oc1ccccc1F)C(=O)O [compound 8, (S)-2-amino-4-((2-((4-fluorobenzyl)oxy)benzyl)(2-(2-fluorophenoxy)benzyl)amino)butanoic acid] | 117 µM | 
N[C@@H](CCN(Cc1ccccc1OCc1ccccc1F)Cc1ccccc1Oc1ccc(Cl)cc1)C(=O)O [compound 10, (S)-2-amino-4-((2-(4-chlorophenoxy)benzyl)(2-((2-fluorobenzyl)oxy)benzyl)amino)butanoic acid] | 43 µM | 
COc1ccc(Oc2ccccc2CN(CC[C@H](N)C(=O)O)Cc2ccccc2OCc2ccc(F)cc2)cc1 [compound 13, (S)-2-amino-4-((2-((4-fluorobenzyl)oxy)benzyl)(2-(4-methoxyphenoxy)benzyl)amino)butanoic acid] | 29 µM | 
COc1ccc(Oc2ccccc2CN(CC[C@H](N)C(=O)O)Cc2ccccc2OCc2ccc(Cl)cc2)cc1 [compound 14, (S)-2-amino-4-((2-((4-chlorobenzyl)oxy)benzyl)(2-(4-methoxyphenoxy)benzyl)amino)butanoic acid] | 164 µM | 
N[C@@H](CCN(Cc1ccccc1OCc1ccc(F)cc1)Cc1ccccc1Oc1ccc(Cl)cc1)C(=O)O [compound 15, (S)-2-amino-4-((2-(4-chlorophenoxy)benzyl)(2-((4-fluorobenzyl)oxy)benzyl)amino)butanoic acid] | 31.4 µM | 
